Consider seven compounds from patent US20050154010A1 (The Regents of University of California, priority 2002, published 2005).

For data set [1] the following is noted: cited from earlier work.
The test system of data set [2] is NCI-H460. Briefly: NCI In Vitro Cell Line Screening. The class given is cell-based. Conditions: Homo sapiens; NCI-H460, Non-Small Cell Lung Cancer. The protocol:
(§1) The human tumor cell lines of the cancer screening panel are grown in RPMI 1640 medium containing 5% fetal bovine serum and 2 mM L-glutamine. For a typical screening experiment, cells are inoculated into 96 well microtiter plates in 100 μL at plating densities ranging from 5,000 to 40,000 cells/well depending on the doubling time of individual cell lines. After cell inoculation, the microtiter plates are incubated at 37° C., 5% CO2, 95% air and 100% relative humidity for 24 h prior to addition of experimental drugs. After 24 h, two plates of each cell line are fixed iin situ with TCA, to represent a measurement of the cell population for each cell line at the time of drug addition (Tz).
(§2) Experimental drugs are solubilized in dimethyl sulfoxide at 400-fold the desired final maximum test concentration and stored frozen prior to use. At the time of drug addition, an aliquot of frozen concentrate is thawed and diluted to twice the desired final maximum test concentration with complete medium containing 50 μg/ml gentamicin. Additional four, 10-fold or ½ log serial dilutions are made to provide a total of five drug concentrations plus control. Aliquots of 100 μl of these different drug dilutions are added to the appropriate microtiter wells already containing 100 μl of medium, resulting in the required final drug concentrations. Following drug addition, the plates are incubated for an additional 48 h at 37° C., 5% CO2, 95% air, and 100% relative humidity. For adherent cells, the assay is terminated by the addition of cold TCA.
(§3) Cells are fixed in situ by the gentle addition of 50 μl of cold 50% (w/v) TCA (final concentration, 10% TCA) and incubated for 60 minutes at 4° C. The supernatant is discarded, and the plates are washed five times with tap water and air-dried. Sulforhodamine B (SRB) solution (100 μl) at 0.4% (w/v) in 1% acetic acid is added to each well, and plates are incubated for 10 minutes at room temperature. After staining, unbound dye is removed by washing five times with 1% acetic acid and the plates are air dried. Bound stainis subsequently solubilized with 10 mM trizma base, and the absorbance is read on an automated plate reader at a wavelength of 515 nm. For suspension cells, the methodology is the same except that the assay is terminated by fixing settled cells at the bottom of the wells by gently adding 50 μl of 80% TCA (final concentration, 16% TCA). Using the seven absorbance measurements [time zero, (Tz), control growth, (C), and test growth in the presence of drug at the five concentration levels ( ? )], tile percentage growth is calculated at each of the drug concentrations levels. Percentage growth inhibition is calculated as: [(Ti−Tz)/(C−Tz)]×100 for concentrations for which Ti>/=Tz [(Ti−Tz)/Tz]×100 for concentrations for which Ti<Tz
(§4) Three dose-response parameters are calculated for each experimental agent. Growth inhibition of 50% (GI50) is calculated from [(Ti−Tz)/(C−Tz)]×100=50, which is the drug concentration resulting in a 50% reduction in the net protein increase (as measured by SRB staining) in control cells during the drug incubation. The drug concentration resulting in total growth inhibition (TGI) is calculated from Ti=Tz. The LC50 (concentration of drug resulting in a 50% reduction in the measured protein at the end of the drug treatment as compared to that at the beginning) indicating a net loss of cells following treatment is calculated from [(Ti−Tz)/Tz]×100=−50. Values are calculated for each of these three parameters if the level of activity is reached; however, if the effect is not reached or is exceeded, the value for that parameter is expressed as greater or less than the maximum or minimum concentration tested.

Data set [3] relates to CAK-1. Nature of the data set: NCI In Vitro Cell Line Screening. The class given is cell-based. Conditions: Homo sapiens; CAK-1, Renal Cell Carcinoma. The protocol:
as §1, §2, §3, §4

Data set [4] relates to SK-MEL-5. Nature of the data set: NCI In Vitro Cell Line Screening. The format is cell-based. Conditions: Homo sapiens; SK-MEL-5, Melanoma. Here is the method:
as §1, §2, §3, §4

For data set [5], the system named is RXF 393. Nature of the data set: NCI In Vitro Cell Line Screening. The format is cell-based. The note with it: Homo sapiens; RXF 393, Renal Cell Carcinoma. The protocol: as §1, §2, §3, §4
Data set [6] relates to OVCAR-4. Briefly: NCI In Vitro Cell Line Screening. The format is cell-based. Conditions: Homo sapiens; OVCAR-4, Ovarian Carcinoma. The protocol:
as §1, §2, §3, §4

The test system of data set [7] is HCC-2998. Briefly: NCI In Vitro Cell Line Screening. The format is cell-based. Conditions: Homo sapiens; HCC-2998, Colon Cancer. The protocol: as §1, §2, §3, §4
Data set [8] has as its system NCI-H23. Nature of the data set: NCI In Vitro Cell Line Screening. The note with it: Homo sapiens; NCI-H23, Non-Small Cell Lung Cancer. The format is cell-based. Here is the method:
as §1, §2, §3, §4

Data set [9] has as its system LOX IMVI. Briefly: NCI In Vitro Cell Line Screening. The format is cell-based. The note with it: Homo sapiens, Melanoma. Here is the method:
as §1, §2, §3, §4

In data set [10] the test system is 60 human tumor cell lines. Briefly: cells. The format is cell-based.
Text: The operation of this screen utilizes 60 different human tumor cell lines, representing leukemia, melanoma, and cancers of the lung, colon, brain, ovary, breast, prostate, and kidney. The aim is to prioritize for further evaluation, synthetic compounds or natural product samples showing selective growth inhibition or cell killing of particular tumor cell lines. This screen is unique in that the complexity of a 60-cell line dose response produced by a given compound results in a biological response pattern which can be utilized in pattern recognition algorithms. Using these algorithms, it is possible to assign a putative mechanism of action to a test compound, or to determine that the response pattern is unique and not similar to that of any of the standard prototype compounds included in the NCI database (see DTP Overview tab). In addition, following characterization of various cellular molecular targets in the 60 cell lines, it may be possible to select compounds most likely to interact with a specific molecular target.
as §1
Experimental drugs are solubilized in dimethyl sulfoxide at 400-fold the desired final maximum test concentration and stored frozen prior to use. […]
Cells are fixed in situ by the gentle addition of 50 μl of cold 50% (w/v) TCA (final concentration, 10% TCA) and incubated for 60 minutes at 4° C. […] Bound stainis subsequently solubilized with 10 mM trizma base, and the absorbance is read on an automated plate reader at a wavelength of 515 nm. […] Using the seven absorbance measurements [time zero, (Tz), control growth, (C), and test growth in the presence of drug at the five concentration levels ( ? )], tile percentage growth is calculated at each of the drug concentrations levels. Percentage growth inhibition is calculated as: [(Ti−Tz)/(C−Tz)]×100 for concentrations for which Ti>/=Tz [(Ti−Tz)/Tz]×100 for concentrations for which Ti<Tz
Three dose-response parameters are calculated for each experimental agent. […]

The conditions of data set [11]: in vivo; cited from earlier work.
For data set [12], the system named is Chronic lymphocytic leukemia cells (CLL). Nature of the data set: Viable CLL cells after 48 hours exposure, dye exclusion and flow cytometric analysis. The class given is cell-based, human. Here is the method:
(§5) After 48 hours exposure, the number of viable cells was determined by dye exclusion and flow cytometric analysis.

Data set [13] concerns control normal lymphocytes (PBL). Briefly: Viable normal lymphocytes after 48 hours exposure, dye exclusion and flow cytometric analysis. The format is cell-based, human. The note with it: 10 μM. Here is the method:
as §5

Data set [14] relates to RAJI. Briefly: MTT assay, cell viability. The class given is cell-based. The note with it: Lymphoma, 72 hours exposure. The protocol: (§6) After 72 hours exposure, the viability of the cells was determined by the rate of conversion of the formazan salt measuring the optical density (OD) at 570 nm (MTT assay).
Data set [15] has as its system MDA-231. Briefly: MTT assay, cell viability. The note with it: MDA-231, Breast, 72 hours exposure. The class given is cell-based. The protocol: as §6
(Tetrazolium dyes change colour on reduction, which living cells bring about.)

The subject of data set [16] is RPMI8226. Nature of the data set: MTT assay, cell viability. Conditions: RPMI8226, Myeloma, 72 hours exposure. The format is cell-based. Here is the method: as §6
Data set [17] relates to MCF7. Briefly: MTT assay, cell viability. The note with it: MCF7, Breast, 72 hours exposure. The class given is cell-based. The protocol: as §6
In data set [18] the test system is LNCap. Briefly: MTT assay, cell viability. The note with it: Prostate, 72 hours exposure. The format is cell-based. Here is the method: as §6
In data set [19] the test system is HCT-116. Briefly: MTT assay, cell viability. The class given is cell-based. Conditions: HCT-116, Colon, 72 hours exposure. The protocol:
as §6

Data set [20] relates to U266. Nature of the data set: MTT assay, cell viability. The class given is cell-based. The note with it: U266, Myeloma, 72 hours exposure. The protocol: as §6
In data set [21] the test system is SU-DHL1. Nature of the data set: MTT assay, cell viability. The format is cell-based. Conditions: SU-DHL1, Lymphoma, 72 hours exposure. Here is the method: as §6
Data set [22] has as its system 10C9. Nature of the data set: MTT assay, cell viability. The class given is cell-based. Conditions: 10C9, Lymphoma, 72 hours exposure. The protocol:
as §6

In data set [23] the test system is SU-DHL9. Briefly: MTT assay, cell viability. The format is cell-based. The note with it: SU-DHL9, Lymphoma, 72 hours exposure. Here is the method:
as §6

The test system of data set [24] is Chronic lymphocytic leukemia cells (CLL). Nature of the data set: Flow cytometry (propidium iodide, DiOC6) of CLL cells after 24 hours exposure. The class given is cell-based, human. The note with it: 10 μM, FIG. 2. Here is the method:
After 24 hours exposure, the percentage of living (lower-right corner), apoptotic (lower-left corner) and dead (higher-left corner) were analyzed by flow cytometry using propidium iodide (y axis) and DiOC6 (x axis). The results, showing the activity of the (+) and (−) enantiomers against CLL cells, are seen in FIG. 2.
For orientation: Flow cytometry measures light scatter and fluorescence of single cells or particles in a stream.

The conditions of data set [25]: in vivo; cited from earlier work. The source holds these as a separate data set.
For data set [26] the following is noted: cited from earlier work. This is another data set of the same source.
Data set [27] relates to CLL cells. The note with it: Lagneaux et al. 2001; not feasible in vivo due to toxicity; cited from earlier work.
Data set [28] relates to peripheral blood T lymphocytes. The note with it: Meng et al. 1997; cited from earlier work.

Structures can show the parent of a compound that is named as a salt. Bounds are passed on as bounds.

Take “2,8-bis-trifluorornethyl-4-quinoline carboxylic acid [Metabolite]”: the “level accumulated in the plasma” value in [1] (plasma) is “up to 10 μM”. In addition, the “Mean (SD) trough concentration, Plasma” value in data set [1] (plasma, ten healthy volunteers, 250 mg once weekly for 16 weeks, steady state at week 16) is given as 9.80 (5.07) μmol · 1^−1. Besides, in [1] (serum, ten healthy volunteers, 250 mg once weekly for 16 weeks, steady state at week 16), the “Mean (SD) trough concentration, Serum” value is 9.44 (5.00) μmol · 1^−1. Moreover, the “Mean (SD) trough concentration, Whole Blood” value in data set [1] (whole blood, ten healthy volunteers, 250 mg once weekly for 16 weeks, steady state at week 16) is listed as 4.89 (2.58) μmol · 1^−1.
As for `O[C@H](c1cc(C(F)(F)F)nc2c(C(F)(F)F)cccc12)[C@@H]1CCCCN1` (racemic) [Mefloquine, (R*,S*)-(±)-alpha-2-piperidinyl-2,8-bis(trifluoromethyl)-4-quinolinemethanol], the GI50 (in general, the concentration giving 50% growth inhibition) in data set [2] is 2100 nM; in data set [3], 100 nM; in [4] it was 2000 nM; in data set [5] it was 1700 nM; in data set [6], 1900 nM; in data set [7], 2000 nM. In addition, the GI50 was 2800 nM in data set [8]; 1300 nM in data set [9]; 4 µM in [10] (Homo sapiens, mean over 60 tumor cell lines, 48 h, SRB). Further, the CC50 in [10] (Homo sapiens, 48 h, read-out: Mean LC50) worked out at 87 µM. Also, the “Mean TGI50” value in [10] (mean over 60 tumor cell lines, 48 h, SRB) came to 26 µM. The “number of the 60 cell lines against which active” value in [10] (of the 60 cell lines in the screen) is on record as 58. In data set [11], the bioavailability (as a rule, dose-corrected exposure relative to a reference, in per cent) is reported as 80%. For the same compound, the “concentration effective against CLL cells” value in data set [12] was at most 10 µM.
`O[C@H](c1cc(C(F)(F)F)nc2c(C(F)(F)F)cccc12)[C@@H]1CCCCN1` (relative stereo) [Mefloquine, (R*,S*)-(±)-alpha-2-piperidinyl-2,8-bis(trifluoromethyl)-4-quinolinemethanol]: in [12] (10 μM, 48 hours exposure), the “apoptosis induction in CLL cells” value is listed as “inducing potent apoptosis”. In addition, the “apoptosis induction in normal lymphocytes” value in [13] is listed as “not against normal lymphocytes”.
On to `OC(c1cc(C(F)(F)F)nc2c(C(F)(F)F)cccc12)C1CCCCN1` (single isomer, unassigned; (-)) [(−)Mefloquine], for which the IC50 (usually the concentration needed to halve the response being measured) came out at 30 µM in [14]; 40 µM in [15]; 15 µM in [16]; 20 µM in data set [17]; 25 µM in data set [18]; 12 µM in data set [19]. For the same compound, the half-maximal inhibitory concentration (IC50) in data set [20] amounted to 25 µM; in data set [21] it was 20 µM; in [22], 20 µM; in data set [23] it was 15 µM. Further, in data set [24], the “activity against CLL cells” value was “activity”. For the same compound, the “passage of the blood brain barrier / accumulation in the brain” value in data set [25] is “does not seem to pass the blood brain barrier”.
Turning to `O[C@H](c1cc(C(F)(F)F)nc2c(C(F)(F)F)cccc12)[C@@H]1CCCCN1` [(+)-mefloquine], in data set [24], the “activity against CLL cells” value was “activity”. Also, the “passage of the blood brain barrier / accumulation in the brain” value in data set [25] is “accumulate in the brain”.
For `OC(c1cc(C(F)(F)F)nc2c(C(F)(F)F)cccc12)C1CCCCN1` (centres unmarked) [Mefloquine hydrochloride], the solubility in ethanol result in [26] (ethanol) was “soluble”. In addition, in [26] (water), the solubility in water result is recorded as “slightly soluble”.
For the compound `CCN(CCO)CCCC(C)Nc1ccnc2cc(Cl)ccc12` (centres unmarked) [hydroxychloroquine], the “concentration active against CLL cells” value in [27] was at least 30 µg/mL. Besides, the “apoptosis induction in peripheral blood T lymphocytes” value in [28] was “induce apoptosis”.
